# Data: ChEMBL document CHEMBL2021909, “Isoflavones inhibit the clonogenicity of human colon cancer cells” (2012)
# Columns and labels:
# HCT-116 [1] = test: Inhibition of human HCT116 clonogenicity after 7 days by crystal violet staining by densitometric analysis; format: functional
# HCT-116 [2] = test: Antiproliferative activity against human HCT116 assessed as growth inhibition after 24 to 48 hrs by WST-8 assay; format: functional, cell-based
# HCT-116 [3] = test: Cell cycle arrest in human HCT116 cells assessed as accumulation at S phase at 20 uM after 48 hrs by flow cytometry (Rvb =21.16 %); format: functional
# HCT-116 [4] = test: Cell cycle arrest in human HCT116 cells assessed as accumulation at G2/M phase at 20 uM after 48 hrs by flow cytometry (Rvb =23.23 %); format: functional
# HCT-116 [5] = test: Antiproliferative activity against human HCT116 assessed as growth inhibition at 5 to 40 uM hrs by WST-8 assay; format: functional, cell-based; details: TDE = time-dependent effect
# HCT-116 [6] = test: Cell cycle arrest in human HCT116 cells assessed as accumulation at G1 phase at 20 uM after 48 hrs by flow cytometry (Rvb =45.27 %); format: functional
# HCT-116 [7] = test: Cell cycle arrest in human HCT116 cells assessed as accumulation at sub-G1 phase at 20 uM after 48 hrs by flow cytometry (Rvb =7.90 %); format: functional
structure (smiles),measurement,setting,value
COc1cc(O)c2c(=O)c(-c3ccc(O)cc3)coc2c1 [PRUNETIN],inhibition (INH),HCT-116 [1],74%
COc1cc(OC)c2c(=O)c(-c3ccc(OC)c(OC)c3)coc2c1,inhibition (INH),HCT-116 [1],22.3%
COc1cc2occ(-c3ccccc3)c(=O)c2cc1OC,growth inhibition (GI),HCT-116 [2],Dose-dependent effect
same,Activity,HCT-116 [3],14.97%
same,Activity,HCT-116 [4],14.34%
same,growth inhibition (GI),HCT-116 [5],tde
same,inhibition (INH),HCT-116 [1],91.3%
same,Activity,HCT-116 [6],47.46%
same,Activity,HCT-116 [7],21.34%
COc1cc(OC)c2c(=O)c(-c3ccc(Br)cc3)coc2c1,inhibition (INH),HCT-116 [1],13.7%
COc1ccc2c(=O)c(-c3ccccc3)coc2c1,inhibition (INH),HCT-116 [1],42%
COc1cc(OC)c2c(=O)c(-c3ccc(Cl)cc3)coc2c1,inhibition (INH),HCT-116 [1],71.3%
COc1ccc2c(=O)c(-c3ccc(OC)c(OC)c3)coc2c1,inhibition (INH),HCT-116 [1],35.7%
COc1ccc(-c2coc3cc(O)c(OC)cc3c2=O)cc1 [CASTANIN],inhibition (INH),HCT-116 [1],4.3%
Cc1c(O)ccc2c(=O)c(-c3ccccc3)coc12,inhibition (INH),HCT-116 [1],27.7%
COc1cc2c(=O)c(-c3ccccc3)coc2cc1O,inhibition (INH),HCT-116 [1],37.3%
COc1ccc(-c2coc3cc(OC)c(OC)cc3c2=O)cc1OC,inhibition (INH),HCT-116 [1],85.3%
O=c1c(-c2ccc(O)cc2)coc2c(O)c(O)ccc12,inhibition (INH),HCT-116 [1],64%
COc1ccc(-c2coc3c(C)c(OC)ccc3c2=O)cc1,inhibition (INH),HCT-116 [1],52.7%
COc1cc(OC)c2c(=O)c(-c3ccccc3Cl)coc2c1,inhibition (INH),HCT-116 [1],63.3%
COc1cc(C)c2c(=O)c(-c3ccccc3)coc2c1,inhibition (INH),HCT-116 [1],55.3%
COc1ccc(-c2coc3c(OC)c(OC)ccc3c2=O)cc1,inhibition (INH),HCT-116 [1],70%
COc1ccc2c(=O)c(-c3ccccc3)coc2c1C,inhibition (INH),HCT-116 [1],54%
Cc1cc2occ(-c3ccc(Cl)cc3Cl)c(=O)c2cc1Cl,inhibition (INH),HCT-116 [1],12.7%
COc1cc2c(=O)c(-c3ccc(OC(C)=O)cc3)coc2cc1O,inhibition (INH),HCT-116 [1],26.7%
COc1cc(OC)c2c(=O)c(-c3cccc(Cl)c3)coc2c1,inhibition (INH),HCT-116 [1],82.7%
COc1cc2occ(-c3ccccc3Cl)c(=O)c2cc1Cl,inhibition (INH),HCT-116 [1],5.3%
Cc1c(O)ccc2c(=O)c(-c3ccc(Cl)cc3)coc12,inhibition (INH),HCT-116 [1],46.3%
COc1ccc2c(=O)c(-c3ccc(Cl)cc3)coc2c1C,inhibition (INH),HCT-116 [1],58.3%
